From publication PMC12197660 (Viruses, 2025)
Values after ≈ are worked out from the molar mass of the structure shown. Values joined by “and” are separate entries in the source; they are usually repeats but may differ in a detail not shown here. Equal entries are not always repeated. Where two headings read alike, the source gives them in different places.

Assays:
[1] = Radiolabeled metabolism and excretion in rats; assay type: in vivo
[2] = GS-441524 plasma PK across species; details: for half-life: BALB/c (mouse), Sprague Dawley (rat), beagle (dog)
Solubility (PBS) = assay type: physicochemical; details: aqueous buffer; PBS; read-out: Solubility (PBS)
[3] = Microautoradiography (MARG) of lung and trachea; assay type: in vivo, Sprague Dawley rats; design: Radioactivity in Blood vessels / Radioactivity in Trachea (representative) / Radioactivity in Bronchus (cartilage) / Radioactivity in Bronchus (smooth muscle) / Radioactivity in Bronchus (epithelium) / Radioactivity in Bronchioles / Radioactivity in Alveoli wall: key: +++: moderate levels of silver grains present; ++: low levels of silver grains present; +: background levels of silver grains present; details: [3H] compound, 30 min IV infusion 10 mg/kg (3700 µCi/kg), 1 h after infusion; per animal; as to Radioactivity in Alveoli sac: key: +++: moderate levels of silver grains present; ++: low levels of silver grains present; +: background levels of silver grains present; as to Radioactivity in Blood vessels: key: +++: moderate levels of silver grains present; ++: low levels of silver grains present; +: background levels of silver grains present; as to Radioactivity in Bronchioles: key: +++: moderate levels of silver grains present; ++: low levels of silver grains present; +: background levels of silver grains present; as to Radioactivity in Bronchus (cartilage): key: +++: moderate levels of silver grains present; ++: low levels of silver grains present; +: background levels of silver grains present
[4] = cynomolgus monkey; cited from earlier work
[5] = Hepatic S9 fraction stability; assay type: in vitro ADME, rat, dog, monkey, and human; details: assessed in rat, dog, monkey, and human
[6] = humans, cited from earlier work
[7] = Plasma and PBMC PK after IV RDV 10 mg/kg (Table 2); assay type: in vivo, cynomolgus monkeys; details: N = 3; for half-life: cynomolgus monkey, in vivo, iv, 10 mg/kg
[8] = human; cited from earlier work
[9] = Permeability (MDCK A-to-B); assay type: in vitro ADME, canine; details: dog, MDCK-MDR1, pH 7.4; A-to-B; read-out: Permeability (MDCK A-to-B)
LogD = assay type: physicochemical
[10] = tested on: OATP1B1/3, P-gp, BCRP, ENT1/2, CNT3; experiment: Transporter substrate assessment; assay type: in vitro ADME, human
adenosine deaminase = details: cited from earlier work
[11] = Plasma stability (Table 1, across species); assay type: in vitro ADME, mouse, rat, dog, monkey, and human; details: assessed in mouse, rat, dog, monkey, and human
[12] = Oral ODV PK in portal-vein-cannulated monkey; assay type: in vivo, cynomolgus monkey; details: analyte after oral ODV 14.4 mg/kg, single monkey
[13] = Intestinal (GI) S9 fraction stability; assay type: in vitro ADME, rat, dog, monkey, and human; details: assessed in rat, dog, monkey, and human
plasma protein = experiment: Plasma protein binding; assay type: in vitro ADME, mouse, rat, dog, monkey, and human; details: range over mouse, rat, dog, monkey, and human
[14] = oral solution (55 °C) of GS-441524, human PK; cited from earlier work
[15] = GS-441524 IV 30 min infusion 20 mg/kg; mean ± SD, N = 3; cited from earlier work

**Q.** With `N#CC1(c2ccc3c(=O)[nH]cnn23)OC(CO)C(O)C1O` (stereo not drawn) [Deaminated nucleoside] as the molecule, how does the “Level in feces, fold lower than GS-441524” value ([1]; minor metabolite after oral ODV, rats and humans) read?
**A.** 5- to 10 fold

**Q.** What does the source list for `N#C[C@@]1(c2ccc3c(N)ncnn23)O[C@H](CO)[C@@H](O)[C@H]1O` [GS-441524]?
**A.** half-life ([2]; plasma, iv): 0.7 to 3.4 h; half-life ([2]; plasma, po): 1.4 to 4.2 h; Volume of distribution ([2]; IV, across species): moderate volume of distribution; clearance ([2]; IV, across species): low to moderate clearance; bioavailability ([2]; cynomolgus monkey, plasma, po): ~5%; Share of radioactivity in AUC-pooled plasma ([1]; analyte after IV RDV, rats): approximately 70%; Share of total radioactivity in plasma ([1]; analyte after oral ODV, rats): > 97%; Share of total sample radioactivity in feces ([1]; analyte after oral ODV, rats): ~ 85%; solubility (Solubility (PBS)): 26.5 µg/mL (≈ 91 µM); Radioactivity in Alveoli sac [3]: ++ (2×) and +; Radioactivity in Alveoli wall [3]: +++; Radioactivity in Blood vessels [3]: +++; Radioactivity in Bronchioles [3]: +++; Radioactivity in Bronchus (cartilage) [3]: ++ and +++; Radioactivity in Bronchus (epithelium) [3]: ++ and +++; Radioactivity in Bronchus (smooth muscle) [3]: ++; Radioactivity in Trachea (representative) [3]: ++; Stability in plasma [4]: stable; S9 Stability, Hepatic [5]: Stable; Share of total radioactivity in plasma ([6]; analyte after IV RDV): ~ 53%; Share of total radioactivity in plasma ([6]; analyte after oral ODV): > 97%; Share of total sample radioactivity in feces ([6]; analyte after oral ODV): 98%; half-life ([7]; analyte in plasma after IV RDV 10 mg/kg 30-min infusion, mean ± SD, read-out: T1/2 in plasma (converted)): 16.1 ± 4 h; Stability in plasma [8]: stable; Papp A→B at 120 min [9]: 0.16 ×10⁻⁶ cm/s; logD (LogD): < 0.3; Transporter substrate (text) [10]: substrate for P-gp; Transporter substrate ([10]; human): BCRP/P-gp ENT1/2/CNT3; Adenosine deaminase substrate (adenosine deaminase): weak substrate for adenosine deaminase; Plasma stability [11]: Stable; Time of plasma Cmax in both portal and systemic circulation [12]: 1 h; S9 Stability, Intestinal [13]: Stable; Plasma protein binding (% free) (plasma protein): 85–99 % free; Oral bioavailability of GS-441524, estimated [14]: < 15%; Plasma GS-441524 AUC0–24h [15]: 124,000 ± 11,000 nM·h; Plasma GS-441524 Tmax [15]: 0.516 ± 0.058 h

**Q.** With `N#C[C@@]1(c2ccc3c(N)ncnn23)O[C@H](COP(=O)(O)OP(=O)(O)OP(=O)(O)O)[C@@H](O)[C@H]1O` [GS-443902] as the molecule, how does the “T1/2 in PBMC” value ([7]; analyte in PBMC after IV RDV 10 mg/kg 30-min infusion) read?
**A.** 29.4 ± 3.0 h

**Q.** And the half-life ([7]; analyte in PBMC after IV RDV 10 mg/kg 30-min infusion, read-out: T1/2 in PBMC (converted))?
**A.** 29 h
